The values below come from patent US7598234B2, “Steroid derived antibiotics” (Brigham Young University, priority 1998, dated 2009).

SMILES strings stand for the structures. Values after ≈ are worked out from the molar mass of the structure shown.

The subject of assay [1] is Salmonella typhimurium ATCC 14028. Kind of assay: Growth inhibition and FIC with rifampicin, Salmonella typhimurium ATCC 14028. The conditions noted are these: Table 13, Salmonella typhimurium ATCC 14028^b; for FIC: rifampicin (by order); for concentration required to inhibit bacterial growth with antibiotic: rifampicin (by order) at 0.5, 1.0 or 3.0 μg/mL. The assay is classed as cell-based. The protocol: (§1) Alternatively, “fractional inhibitory concentration (FIC)” is also useful for determination of synergy between the compounds of the invention, or the compounds in combination with known antibiotics. FICs can be performed by checkerboard titrations of compounds in one dimension of a microtiter plate, and of antibiotics in the other dimension, for example. The FIC is calculated by looking at the impact of one antibiotic on the MIC of the other and vice versa. […] Preferably, an FIC of less than 0.5 is obtained for synergism. As used herein, FIC can be determined as follows:
(§2) Aliquots of 1 mL of the suspension were added to test tubes containing 1 mL TSB and incrementally varied concentrations of cholic acid derivatives and/or erythromycin or novobiocin. In the sensitization experiments, erythromycin or novobiocin were added 15 minutes later than the cholic acid derivatives. The samples were subjected to stationary incubation at 37° C. for 24 hours. Sample turbidity was determined by measuring absorption at 760 nm (HP 8453 UV-Visible Chemstation, Hewlett Packard). Additionally, an alliquot from each of the samples showing no measurable turbidity was subcultured on TSA plates (alliquots were diluted to provide fewer than 300 CFU). Colonies that grew on the subculture after overnight incubation were counted and the number of CFU/mL in the samples were calculated. The calculated values were compared to the number of CFU/mL in the original inoculum.
(§3) To measure permeabilization, the FIC values for compounds 1, 2, 5, 106, 10, 112, 133, and 134 with erythromycin, novobiocin, and rifampicin were determined. Concentrations of 0.5, 1.0 or 3.0 μg/mL of these antibiotics were used, and the concentrations of the cholic acid derivatives required to inhibit bacterial growth of Gram-negative strains were determined.

Assay [2] concerns E. coli (ATCC 10798). Kind of assay: MIC and MBC measurement with E. coli (ATCC 10798). It counts as cell-based, Escherichia coli. In short, it runs like this: (§4)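 Broth macrodilution, TSB, 37° C./24 h stationary; MIC by absence of A760 turbidity, MBC by TSA subculture CFU/mL against starting inoculum.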
Assay [3] relates to Pseudomonas aeruginosa ATCC 27853. Kind of assay: Growth inhibition and FIC with rifampicin, Pseudomonas aeruginosa ATCC 27853. The assay is classed as cell-based. The note with it: Table 13, Pseudomonas aeruginosa ATCC 27853^b; for FIC: rifampicin (by order); for concentration required to inhibit bacterial growth with antibiotic: rifampicin (by order) at 0.5, 1.0 or 3.0 μg/mL. The protocol: as §1, §2, §3

In assay [4] the test system is Klebsiella pneumonia ATCC 13883. Kind of assay: Growth inhibition and FIC with novobiocin, Klebsiella pneumoniae ATCC 13883. The note with it: Table 12, novobiocin (by order) at 0.5, 1.0 or 3.0 μg/mL. It counts as cell-based. The protocol:
as §1, §2, §3

Assay [5] has as its system Staphylococcus aureus ATCC 25923. Kind of assay: MIC and MBC measurement with Staphylococcus aureus ATCC 25923. The note with it: Table 10; Staphylococcus aureus ATCC 25923. The assay is classed as cell-based. In outline: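 Growth inhibition read as absorbance at 760 nm after 24 h stationary culture at 37 °C in tryptic soy broth containing varied compound levels. Turbidity-free samples were plated on TSA overnight and CFU/mL compared with the starting inoculum for bactericidal endpoint; antibiotic co-additions followed compound by 15 min.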

Assay [6] relates to Candida albicans ATCC 90028. Kind of assay: MIC and MBC measurement with Candida albicans ATCC 90028. The assay is classed as cell-based. The note with it: Table 10.
Source text: General: Microorganisms. Reference strains were purchased from the American Type Culture Collection (Rockville, Md.) or Bactrol disks from Difeo Laboratories (Detroit, Mich.). The following specific ATCC strains were used: 10798 Escherichia coli, 25922 Escherichia coli, 13883 Klebsiella pneumoniae, 27853 Pseudomonas aeruginosa, 14028 Salmonella typhimurium, 29212 Enterococcus faecalis, 25923 Staphylococcus aureus, 19615 Streptococcus pyogenes, and 90028 Candida albicans. Bacterial strains were maintained on Mueller-Hinton agar plates, and Candida albicans was maintained on Sabouraud Dextrose agar plates.
Tryptic soy broth (TSB) was made by dissolving 27.5 grams of tryptic soy broth without dextrose (DIFCO Laboratories) in 1 liter of deionized water and sterilizing at 121° C. for 15 minutes. Solid agar (TSA) plates were made by dissolving 6.4 grams of tryptic soy broth and 12 grams of agar (purified grade, Fischer Scientific) in 800 mL of deionized water and sterilizing at 121° C. for 20 minutes. Aliquots (20 mL) of the homogeneous solution were then poured in sterile plastic petri dishes (100×15 mm, Fisher Scientific). Solutions of compounds were made by dissolving the HCl salt of the respective compound into an appropriate amount of deionized and sterilized water followed by microfiltration.
as §2

For assay [7], the system named is E. coli (ATCC 10798). Kind of assay: Sensitization to novobiocin (concentration lowering the MIC of novobiocin), E. coli (ATCC 10798). It counts as cell-based, Escherichia coli. The note with it: for MIC: concentration required to lower the MIC of novobiocin from >500 μg/mL to 1 μg/mL / MBC (with novobiocin): Table 3, E. coli (ATCC 10798); for MBC (with novobiocin): novobiocin sensitization; for (d) Concentration required to lower the MIC of novobiocin from >500 to 1 μg/mL / FIC values with novobiocin: Table 9, Escherichia coli (ATCC 10798).

The next assay concerns E. coli (ATCC 25922). Kind of assay: Sensitization to erythromycin, E. coli (ATCC 25922). The assay is classed as cell-based, Escherichia coli. The conditions noted are these: for MIC: concentration required to lower the MIC of erythromycin from 60 μg/mL to 1 μg/mL / MBC (with erythromycin): Table 5, E. coli (ATCC 25922); for MBC (with erythromycin): erythromycin sensitization; for FIC / concentration required to inhibit bacterial growth with antibiotic: Table 11, Escherichia coli ATCC 25922; for FIC: erythromycin (by order); for concentration required to inhibit bacterial growth with antibiotic: erythromycin (by order) at 0.5, 1.0 or 3.0 μg/mL. In short, it runs like this: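 Bacteria grown in TSB with varied cholic acid derivative concentrations; erythromycin (0.5, 1.0 or 3.0 μg/mL) added 15 min later; stationary incubation 37° C, 24 h. Growth read as absorbance at 760 nm, with clear samples subcultured on TSA for CFU/mL; derivative concentration inhibiting growth determined.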

For assay [8], the system named is Salmonella typhimurium ATCC 14028. Kind of assay: MIC and MBC measurement with Salmonella typhimurium ATCC 14028. The conditions noted are these: Table 10. It counts as cell-based. In short, it runs like this:
as §4

The subject of assay [9] is Klebsiella pneumonia ATCC 13883. Kind of assay: Growth inhibition and FIC with rifampicin, Klebsiella pneumoniae ATCC 13883. The assay is classed as cell-based. The note with it: for FIC: Table 13, rifampicin (by order); for concentration required to inhibit bacterial growth with antibiotic: Table 13, rifampicin (by order) at 0.5, 1.0 or 3.0 μg/mL. The protocol:
as §1, §2, §3

[10] abbreviates: Table 9, Escherichia coli (ATCC 10798).

Regarding `C[C@H](CCCN(C)Cc1ccccc1)[C@H]1CC[C@H]2[C@@H]3[C@H](OCCN)C[C@@H]4C[C@H](OCCN)CC[C@]4(C)[C@H]3C[C@H](OCCN)[C@]12C` [Compound 1], the FIC in assay [1] is 0.089; in assay [3], 0.096; with E. coli (ATCC 25922) it was 0.15; in assay [9] it was 0.043. The “concentration required to inhibit bacterial growth with antibiotic” value in assay [1] was determined as 0.84 µg/mL; in assay [3], 1.5 µg/mL; in assay [4] it was 4.7 µg/mL; in the assay with E. coli (ATCC 25922), 2.5 µg/mL; in assay [9] it was 0.40 µg/mL. Also, the MBC against E. coli (ATCC 10798) [2] (Table 1, E. coli (ATCC 10798)) was 34 µg/mL (≈ 54.2 µM); in [5], 5.7 µg/mL (≈ 9.09 µM); in assay [6], over 50 µg/mL; in assay [8], over 25 µg/mL. Also, the minimum inhibitory concentration (MIC) with E. coli (ATCC 10798) [2] (Table 1, E. coli (ATCC 10798)) is 20 µg/mL (≈ 31.9 µM); in assay [5] it was 3.1 µg/mL (≈ 4.94 µM); in assay [6], 49 µg/mL (≈ 78.2 µM); in [8], 21 µg/mL (≈ 33.5 µM). For the same molecule, in the assay with E. coli (ATCC 10798) [7], the “MIC: concentration required to lower the MIC of novobiocin from >500 μg/mL to 1 μg/mL” value came to 20 µg/mL. In the assay on E. coli (ATCC 10798) [7], the “MBC (with novobiocin)” value came to 34 µg/mL. In the assay with E. coli (ATCC 25922), the “MIC: concentration required to lower the MIC of erythromycin from 60 μg/mL to 1 μg/mL” value amounted to 2 µg/mL. In addition, the “MBC (with erythromycin)” value in the assay with E. coli (ATCC 25922) amounted to 14 µg/mL.
For `C[C@H](CCCN(C)Cc1ccccc1)[C@H]1CC[C@H]2[C@@H]3[C@H](OCCCN)C[C@@H]4C[C@H](OCCCN)CC[C@]4(C)[C@H]3C[C@H](OCCCN)[C@]12C` [Compound 2], the FIC amounted to 0.079 in assay [1], 0.086 in [3], 0.078 in the assay with E. coli (ATCC 25922) and 0.035 in assay [9]. Moreover, the “concentration required to inhibit bacterial growth with antibiotic” value in [1] came to 0.39 µg/mL; in assay [3], 0.50 µg/mL; in assay [4], 0.49 µg/mL; with E. coli (ATCC 25922) it was 0.23 µg/mL; in assay [9], 0.12 µg/mL. Moreover, the MBC was determined as 16 µg/mL (≈ 23.9 µM) in the assay with E. coli (ATCC 10798) [2] (Table 1, E. coli (ATCC 10798)); 4.7 µg/mL (≈ 7.02 µM) in assay [5]; 42 µg/mL (≈ 62.8 µM) in assay [6]; 16 µg/mL (≈ 23.9 µM) in [8]. Moreover, the MIC is 7 µg/mL (≈ 10.5 µM) against E. coli (ATCC 10798) [2] (Table 1, E. coli (ATCC 10798)); 1.0 µg/mL (≈ 1.49 µM) in assay [5]; 30 µg/mL (≈ 44.8 µM) in assay [6]; 13 µg/mL (≈ 19.4 µM) in assay [8]. Moreover, the “MIC: concentration required to lower the MIC of novobiocin from >500 μg/mL to 1 μg/mL” value with E. coli (ATCC 10798) [7] stood at 7 µg/mL. Besides, the “MBC (with novobiocin)” value in the assay on E. coli (ATCC 10798) [7] was 16 µg/mL. The “MIC: concentration required to lower the MIC of erythromycin from 60 μg/mL to 1 μg/mL” value in the assay with E. coli (ATCC 25922) worked out at 1 µg/mL. For the same molecule, in the assay with E. coli (ATCC 25922), the “MBC (with erythromycin)” value is 5 µg/mL.
For `C[C@]12CC[C@@H](OCCCN)C[C@H]1C[C@@H](OCCCN)[C@@H]1[C@@H]2C[C@H](OCCCN)[C@]2(C)[C@@H](O)CC[C@@H]12` [Compound 106], the FIC in assay [1] was found to be 0.064; in assay [3], 0.17; in the assay on E. coli (ATCC 25922), 0.073; in assay [9], 0.044. Besides, the “concentration required to inhibit bacterial growth with antibiotic” value in assay [1] is 1.4 µg/mL; in [3], 11 µg/mL; in assay [4], 8.9 µg/mL; with E. coli (ATCC 25922), 3.2 µg/mL; in assay [9], 1.8 µg/mL. The MBC in the assay on E. coli (ATCC 10798) [2] (setting [10]) was over 200 µg/mL; in assay [5], 54 µg/mL (≈ 109 µM); in assay [6], 92 µg/mL (≈ 186 µM); in [8], over 100 µg/mL. Moreover, the MIC with E. coli (ATCC 10798) [2] (setting [10]) was 140 µg/mL (≈ 282 µM); in [5], 8.6 µg/mL (≈ 17.3 µM); in assay [6], 75 µg/mL (≈ 151 µM); in assay [8] it was over 100 µg/mL. The “(d) Concentration required to lower the MIC of novobiocin from >500 to 1 μg/mL” value in the assay with E. coli (ATCC 10798) [7] is 50 µg/mL. The “FIC values with novobiocin” value in the assay on E. coli (ATCC 10798) [7] was 0.36.
`CCCOCCC[C@@H](C)[C@H]1CC[C@H]2[C@@H]3[C@H](OCCCN)C[C@@H]4C[C@H](OCCCN)CC[C@]4(C)[C@H]3C[C@H](OCCCN)[C@]12C` [Compound 112]: the FIC is 0.051 in assay [1], 0.15 in [3], 0.12 in the assay on E. coli (ATCC 25922) and 0.031 in [9]. For the same molecule, the “concentration required to inhibit bacterial growth with antibiotic” value was found to be 0.10 µg/mL in assay [1]; 0.50 µg/mL in [3]; 0.19 µg/mL in [4]; 0.59 µg/mL in the assay with E. coli (ATCC 25922); 0.11 µg/mL in assay [9]. Besides, the MBC was 17 µg/mL (≈ 28 µM) in the assay on E. coli (ATCC 10798) [2] (setting [10]), 4.2 µg/mL (≈ 6.91 µM) in [5], 45 µg/mL (≈ 74 µM) in assay [6] and 90 µg/mL (≈ 148 µM) in assay [8]. Further, the MIC in the assay on E. coli (ATCC 10798) [2] (setting [10]) is 12 µg/mL (≈ 19.7 µM); in assay [5], 0.55 µg/mL (≈ 0.905 µM); in assay [6], 41 µg/mL (≈ 67.4 µM); in [8] it was 86 µg/mL (≈ 141 µM). Besides, the “(d) Concentration required to lower the MIC of novobiocin from >500 to 1 μg/mL” value with E. coli (ATCC 10798) [7] turned out to be 0.8 µg/mL. The “FIC values with novobiocin” value in the assay with E. coli (ATCC 10798) [7] came out at 0.085.

For orientation: MIC means the smallest concentration in the dilution series that meets the test's criterion for growth inhibition.
